In this assay the test system is Aedes aegypti mosquitoes. Description: in vitro Gupta box landing assay (insect repellency). The note with it: 20 min; 1% (w/v) in isopropyl alcohol, 25 μL on Baudruche membrane; female Aedes aegypti; landings over 20 min vs IPA control. How it is done:
The products of Examples 1-15 were evaluated for insect repellency against Aedes aegypti mosqutioes in the in vitro Gupta box landing assay. In this method a chamber contained 5 wells, each covered by a Baudruche (animal intestine) membrane. Each well was filled with bovine blood containing sodium citrate (to prevent clotting) and ATP (72 mg ATP disodium salt per 26 ml of blood), and heated to 37° C. A volume of 25 μL of isopropyl alcohol (IPA) containing one test specimen or control was applied to each membrane. The concentrations of the dihydronepetalactam products were 1% (w/v) in IPA. The negative control was neat IPA and the positive control was a 1% (w/v) solution of DEET. After 5 min, approximately 250 4-day-old female Aedes aegypti mosquitoes were introduced into the chamber. The number of mosquitoes probing the membranes for each treatment was recorded at 2 min intervals over 20 min. The results obtained in this manner with respect to the compounds of […] are depicted in FIGS. 1-10 (labeled as Examples 16˜25), wherein each datum represents the mean of five replicate experiments. […] The % mean repellencies at 1% (w/v) are depicted in Table 2 for the compounds of Examples 1˜15, wherein R refers to the substituent on dihydronepetalactam.

A word on the pest or weed control: it is how far the test organism was held down. Compound `C[C@@H]1CN(C)C(=O)[C@H]2[C@@H]1CC[C@@H]2C` [IVa, (4S,4aR,7S,7aR)-2,4,7-trimethyloctahydro-1H-cyclopenta[c]pyridin-1-one] registered a pest or weed control at 10000 µg/mL of 39.6%.

In turn, `CCN1C[C@@H](C)[C@H]2CC[C@H](C)[C@H]2C1=O` [IVb, (4S,4aR,7S,7aR)-2-ethyl-4,7-dimethyloctahydro-1H-cyclopenta[c]pyridin-1-one] displayed a pest or weed control at 10000 µg/mL of 96.8%.

Turning to `CCCN1C[C@@H](C)[C@H]2CC[C@H](C)[C@H]2C1=O` [IVc, (4S,4aR,7S,7aR)-2-n-propyl-4,7-dimethyloctahydro-1H-cyclopenta[c]pyridin-1-one], the pest or weed control at 10000 µg/mL turned out to be 87.9%.

`CCCCN1C[C@@H](C)[C@H]2CC[C@H](C)[C@H]2C1=O` [IVd, (4S,4aR,7S,7aR)-2-n-butyl-4,7-dimethyloctahydro-1H-cyclopenta[c]pyridin-1-one]: the pest or weed control at 10000 µg/mL turned out to be 86.3%.

In the case of `CCCCCN1C[C@@H](C)[C@H]2CC[C@H](C)[C@H]2C1=O` [IVe, (4S,4aR,7S,7aR)-2-n-pentyl-4,7-dimethyloctahydro-1H-cyclopenta[c]pyridin-1-one], the pest or weed control at 10000 µg/mL was 100%.

`CCCCCCN1C[C@@H](C)[C@H]2CC[C@H](C)[C@H]2C1=O` [IVf, (4S,4aR,7S,7aR)-2-n-hexyl-4,7-dimethyloctahydro-1H-cyclopenta[c]pyridin-1-one] came in with a pest or weed control at 10000 µg/mL of 99.8%.

On to `CCCCCCCCN1C[C@@H](C)[C@H]2CC[C@H](C)[C@H]2C1=O` [IVg, (4S,4aR,7S,7aR)-2-n-octyl-4,7-dimethyloctahydro-1H-cyclopenta[c]pyridin-1-one], for which the pest or weed control at 10000 µg/mL came to 98.3%.

In turn, `CC(C)N1C[C@@H](C)[C@H]2CC[C@H](C)[C@H]2C1=O` [IVh, (4S,4aR,7S,7aR)-2-n-isopropyl-4,7-dimethyloctahydro-1H-cyclopenta[c]pyridin-1-one] showed a pest or weed control at 10000 µg/mL of 69.4%.

On to `C=CCN1C[C@@H](C)[C@H]2CC[C@H](C)[C@H]2C1=O` [IVi, (4S,4aR,7S,7aR)-2-n-allyl-4,7-dimethyloctahydro-1H-cyclopenta[c]pyridin-1-one], for which the pest or weed control at 10000 µg/mL is 90.6%.

`C#CCN1C[C@@H](C)[C@H]2CC[C@H](C)[C@H]2C1=O` [IVj, (4S,4aR,7S,7aR)-2-n-propargyl-4,7-dimethyloctahydro-1H-cyclopenta[c]pyridin-1-one] returned a pest or weed control at 10000 µg/mL of 88.1%.

`C[C@@H]1CNC(=O)[C@H]2[C@@H]1CC[C@@H]2C` [V, (4S,4aR,7S,7aR)-4,7-dimethyloctahydro-1H-cyclopenta[c]pyridin-1-one] displayed a pest or weed control at 10000 µg/mL of 69.6%.

Regarding `C[C@@H]1CN(c2ccccc2)C(=O)[C@H]2[C@@H]1CC[C@@H]2C` [VIIa, (4S,4aR,7S,7aR)-4,7-dimethyl-2-phenyloctahydro-1H-cyclopenta[c]pyridin-1-one], the pest or weed control at 10000 µg/mL turned out to be 59.5%.

The compound `C[C@@H]1CN(c2ccc(Cl)cc2)C(=O)[C@H]2[C@@H]1CC[C@@H]2C` [VIIb, (4S,4aR,7S,7aR)-2-(4-chlorophenyl)-4,7-dimethyloctahydro-1H-cyclopenta[c]pyridin-1-one] showed a pest or weed control at 10000 µg/mL of 81.5%.

For the compound `C[C@@H]1CN(c2ccc(Br)cc2)C(=O)[C@H]2[C@@H]1CC[C@@H]2C` [VIIc, (4S,4aR,7S,7aR)-2-(4-bromophenyl)-4,7-dimethyloctahydro-1H-cyclopenta[c]pyridin-1-one], the pest or weed control at 10000 µg/mL was 54.1%.

The values are drawn from US20060228387A1, “Dihydronepetalactams and N-substituted derivatives thereof” (priority 2004, published 2006).
